Data on 7 compounds can be found in US9428505B2, “Hydantoin derivative” (Chugai Seiyaku Kabushiki Kaisha, priority 2012, dated 2016).

The target in one series is human PTH1R (Homo sapiens (Human), UniProt Q03431). In words: In vitro cAMP signal activity via the human PTH1R (HKRK-B7 cells). As to conditions: 100 nM human PTH(1-34) = 100%; for EC20: concentration giving 20% cAMP signaling activity; for EC50: concentration giving 50% cAMP signaling activity. Type of series: cell-based. Here is the method: Measurement of In Vitro cAMP Signal Activity of Compounds Via the Human PTH1R
human PTH1R, sequence (Q03431 27-593): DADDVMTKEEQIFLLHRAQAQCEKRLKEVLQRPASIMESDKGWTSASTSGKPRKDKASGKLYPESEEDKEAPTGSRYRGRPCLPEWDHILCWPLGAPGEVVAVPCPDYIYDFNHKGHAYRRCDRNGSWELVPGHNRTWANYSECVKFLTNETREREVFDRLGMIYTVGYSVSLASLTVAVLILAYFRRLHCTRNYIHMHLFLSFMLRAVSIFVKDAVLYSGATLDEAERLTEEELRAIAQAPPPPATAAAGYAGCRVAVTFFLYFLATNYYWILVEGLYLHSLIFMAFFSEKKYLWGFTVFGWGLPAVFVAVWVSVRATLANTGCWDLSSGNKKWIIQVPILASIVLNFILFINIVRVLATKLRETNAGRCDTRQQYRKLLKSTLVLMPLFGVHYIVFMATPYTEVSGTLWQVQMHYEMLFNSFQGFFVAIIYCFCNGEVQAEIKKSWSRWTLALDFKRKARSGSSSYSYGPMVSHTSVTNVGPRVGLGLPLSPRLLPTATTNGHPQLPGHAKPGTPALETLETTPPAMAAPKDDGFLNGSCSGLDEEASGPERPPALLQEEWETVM
Human PTH(1-34) and calcitonin were purchased from Peptide Institute, Inc. (Osaka, Japan), dissolved in 10 mM acetic acid to 1 mM and stored in a −80° C. freezer.
Cells were cultured in Dulbecco's modified Eagle's medium (DMEM) supplemented with 10% fetal bovine serum (Hyclone), 100 units/ml penicillin G and 100 μg/ml streptomycin sulfate (Invitrogen Corp) at 37° C. in a humidified atmosphere containing 5% CO2.
cAMP signal transduction analysis utilized LLC-PK1 cells not expressing the PTH1R, and HKRK-B7 cells, that is, LLC-PK1 cells overexpressing the human PTH1R at 9.5×10^5 receptors/cell (Takasu et al., J. Bone. Miner. Res. 14:11-20, 1999).
HKRK-B7 or LLC-PK1 cells were seeded into a 96-well plate at 1×10^5 cells/well and incubated overnight. On the following day, 50 μl of cAMP assay buffer (DMEM, 2 mM IBMX, 0.2 mg/ml bovine serum albumin, 35 mM Hepes-NaOH, pH 7.4) containing human PTH(1-34) or each compound was added and the plate was placed in a 37° C. incubator. The cells were incubated for 20 minutes. After removing the medium, the cells were washed with 100 μl of cAMP assay buffer once. The plate was placed on dry ice powder to freeze the cells and then removed from the dry ice. The cells were lysed with 40 μl of 50 mM HCl and frozen again on dry ice. The amount of intracellular cAMP produced was measured using a commercially available cAMP EIA kit (Biotrack cAMP EIA system, GE health care).
Analyses were performed using a variable gradient S-shaped dose-response curve equation.

A short description of series [1]: Metabolic stability using rat hepatocyte. Type of series: in vitro ADME. As to conditions: for rat hepatocyte metabolic stability compared to Comparative Examples 1, 2, 3, 5, and 6: rat hepatocytes; for hepatocyte CLint at 1 μM: rat (SD, female) hepatocytes 1×10^6 cells/mL, compound 1 μM, 37° C., read-out: Clearance. Here is the method: Examination of Metabolic Stability Using Rat Hepatocyte
Liver cells were prepared from the liver of rats (SD, female) by a collagenase perfusion method. A compound of the Examples or a Comparative Example was added, and this was incubated at 37° C. for a specified amount of time, followed by addition of a reaction-stopping solution. The concentration of the parent compound at each reaction time was measured using LC/MS/MS, and inherent clearance (μL/10^6 cells/min) was calculated from the slope of the reaction time versus residual rate.
Cell concentration: 1×10^6 cells/mL
(§1) Compound concentration: 1 μM
Medium: Williams' medium E
Reaction-stopping solution: acetonitrile/2-propanol (4/6, v/v)

Series [2] is described as follows: Metabolic stability using human liver microsomes. The format is in vitro ADME. As to conditions: pH 7.4; human liver microsomes 0.5 mg/mL, compound 1 μM, NADPH 1 mM, 37° C.; read-out: Clearance. On the procedure: Examination of Metabolic Stability Using Human Liver Microsomes
In 0.1 M phosphate buffer (pH7.4), human liver microsomes were incubated with a compound or a comparative example in the coexistence of NADPH at 37° C. for a specified amount of time. The concentration of the parent compound at each reaction time was measured using LC/MS/MS, and inherent clearance (μL/min/mg protein) was calculated from the slope of the reaction time versus residual rate.
as §1
Reaction time: 0, 5, 15, and 30 minutes
For orientation: Microsomes from liver hold many membrane-bound enzymes, among them those of drug oxidation.

The next series concerns the target rat PTH1R (Rattus norvegicus (Rat), UniProt P25961). In words: In vitro cAMP signaling activity via the rat PTH1R (LLC-PK46_RATO_PTH1R cells). Type of series: cell-based. As to conditions: LLC-PK46_RATO_PTH1R cells overexpressing rat PTH1R; for EC20: 20% cAMP signaling activity; for EC50: 50% cAMP signaling activity. From the text: Measurement of the Compounds' In Vitro cAMP Signaling Activity Via the Rat PTH1R
Instead of HKRK-B7 cells, LLC-PK46_RATO_PTH1R cells overexpressing rat PTH1R, which were established at Chugai Pharmaceutical, were used to take measurements in a similar manner to Test Example 1.

Another series deals with TPTX rat model. As to the kind of experiment: Calcemic action in the TPTX rat model. The format is in vivo. As to conditions: TPTX rats, oral 30 mg/kg; for change of serum Ca concentration from the Pre-value: up to 24 hours after administration; for significance of serum Ca change compared to Comparative Examples 1 and 2: p<0.05. Here is the method:
Calcemic Action in the TPTX Rat Model
Four-week old female Crl:CD(SD) rats were obtained from Charles River Japan (Atsugi Breeding Center), and were acclimated to standard laboratory conditions of 20-26° C. and 35-75% humidity for one week. The rats were given tap water and were fed ad libitum with standard rodent chow (CE-2) (CLEA Japan, Inc.) containing 1.1% calcium, 1.0% phosphoric acid, and 250 IU/100 g of vitamin D3.
TPTX was performed on five-week old rats. Some of the individuals were subjected to sham operation (Sham). Individuals whose serum Ca concentration was less than 8 mg/dL on four days after the operation were selected for use as TPTX rats. On five days after the operation, the rats were assigned to eight TPTX groups and one Sham group (n=5, each group) based on their body weight and serum Ca concentration measured on four days after the operation. The solvent alone was orally administered to the Sham group and the TPTX-Vehicle group at a volume of 10 mL/kg. Each test article was orally administered individually to each TPTX test article group by dissolving it in a solvent at a dose of 30 mg/10 mL/kg. The solvent composition was 10% dimethylsulfoxide (Wako Pure Chemical Industries, Ltd.), 10% Cremophor EL (Sigma-Aldrich Japan LLC), 20% hydroxypropyl-β-cyclodextrin (Nihon Shokuhin Kako Co., Ltd.), glycine (Wako Pure Chemical Industries, Ltd.); and the pH was adjusted to 10. Immediately before administration of each sample, Pre-blood collection was performed, and blood collection was carried out at 2, 6, 10, and 24 hours after administration to measure the serum Ca concentration. Each blood collection was carried out from the jugular vein under isoflurane inhalation anesthesia.
Serum Ca measurement: Serum obtained by centrifugation from the collected blood was measured by using an automatic analyzer TBA-120FR (Toshiba Medical Systems Corporation).
For statistical analysis of the animal studies, data are shown as mean±standard error (SE). Statistical analysis were performed by unpaired test of the SAS Preclinical Package (Ver. 5.00.010720, SAS Institute Japan, Tokyo, Japan).

rat PTH1R, sequence (P25961 27-591): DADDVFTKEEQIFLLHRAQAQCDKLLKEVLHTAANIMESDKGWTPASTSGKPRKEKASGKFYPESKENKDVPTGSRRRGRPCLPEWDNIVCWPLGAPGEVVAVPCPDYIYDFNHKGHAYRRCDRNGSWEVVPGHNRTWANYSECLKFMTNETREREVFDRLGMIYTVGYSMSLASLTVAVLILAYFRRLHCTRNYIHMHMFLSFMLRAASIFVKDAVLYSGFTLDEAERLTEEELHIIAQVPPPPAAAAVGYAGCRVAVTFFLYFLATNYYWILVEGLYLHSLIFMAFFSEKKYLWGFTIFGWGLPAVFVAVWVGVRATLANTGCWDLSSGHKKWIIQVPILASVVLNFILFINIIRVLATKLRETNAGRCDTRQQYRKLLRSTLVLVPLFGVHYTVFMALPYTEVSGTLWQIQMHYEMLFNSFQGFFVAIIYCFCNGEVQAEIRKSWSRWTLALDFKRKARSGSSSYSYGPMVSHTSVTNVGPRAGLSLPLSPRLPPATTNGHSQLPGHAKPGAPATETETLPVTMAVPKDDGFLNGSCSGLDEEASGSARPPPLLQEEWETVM

Turning to `Cc1cc(N2C(=O)NC(=O)C23CC3)cc(C)c1CCS(=O)(=O)N1CCC2(CC1)N=C(c1ccc(OC(F)(F)F)cc1)NC2=O` [Compound 11, 4-(3,5-dimethyl-4-(2-((4-oxo-2-(4-(trifluoromethoxy)phenyl)-1,3,8-triazaspiro[4.5]deca-1-en-8-yl)sulfonyl)ethyl)phenyl)-4,6-diazaspiro[2.4]heptane-5,7-dione], on human PTH1R, the EC20 stood at 1.5 µM and the 50% effective concentration (EC50) came to 11 µM. Further, the “rat hepatocyte metabolic stability compared to Comparative Examples 1, 2, 3, 5, and 6” value in series [1] is recorded as “increased”. Moreover, the microsomal CLint at 1 μM in series [2] stood at 19 µL/min/mg. Moreover, at rat PTH1R, the concentration for an effect of 20% (EC20) worked out at 0.8 µM and a half-maximal response (EC50) required 3.2 µM.
In the case of `Cc1cc(N2C(=O)NC(=O)C23CCCC3)cc(C)c1CCS(=O)(=O)N1CCC2(CC1)N=C(c1ccc(OC(F)(F)F)cc1)NC2=O` [Compound 8, 1-(3,5-dimethyl-4-(2-((4-oxo-2-(4-(trifluoromethoxy)phenyl)-1,3,8-triazaspiro[4.5]deca-1-en-8-yl)sulfonyl)ethyl)phenyl)-1,3-diazaspiro[4.4]nonane-2,4-dione], in the series on TPTX rat model, the “achievement of therapeutic target range of serum Ca concentration of 7.6 to 8.8 mg/dL” value (from here on “achievement”) is listed as “achieved the therapeutic target range”; the “change of serum Ca concentration from the Pre-value” (from here on “change of serum Ca concentration”) is listed as “large positive changes from the Pre-value”; the “significance of serum Ca change compared to Comparative Examples 1 and 2” value is “statistically significant”. In series [1], the hepatocyte CLint at 1 μM was found to be 3 µL/min/1e6 cells; the “rat hepatocyte metabolic stability compared to Comparative Examples 1, 2, 3, 5, and 6” value is on record as “increased”. Further, the microsomal CLint at 1 μM in series [2] was 35 µL/min/mg. Moreover, at rat PTH1R, the 20% effect concentration (EC20) was determined as 0.4 µM and the EC50 amounted to 1.9 µM.
At human PTH1R, `Cc1cc(N2C(=O)NC(=O)C23COC3)cc(C)c1CCS(=O)(=O)N1CCC2(CC1)N=C(c1ccc(OC(F)(F)F)cc1)NC2=O` [Compound 10, 5-(3,5-dimethyl-4-(2-((4-oxo-2-(4-(trifluoromethoxy)phenyl)-1,3,8-triazaspiro[4.5]deca-1-en-8-yl)sulfonyl)ethyl)phenyl)-2-oxa-5,7-diazaspiro[3.4]octane-6,8-dione] yielded an EC20 of 5.0 µM and an EC50 of 21 µM. Besides, in series [1], the hepatocyte CLint at 1 μM is 0.3 µL/min/1e6 cells; the “rat hepatocyte metabolic stability compared to Comparative Examples 1, 2, 3, 5, and 6” value was “increased”. The microsomal CLint at 1 μM in series [2] is 29 µL/min/mg. For the same compound, at rat PTH1R, the concentration for an effect of 20% (EC20) came out at 3.0 µM and the 50% effective concentration (EC50) is 12 µM.
`Cc1cc(N2C(=O)NC(=O)C2(C)C)cc(C)c1CCS(=O)(=O)N1CCC2(CC1)N=C(c1ccc(OC(F)(F)F)cc1)NC2=O` [Compound 7, 1-(3,5-dimethyl-4-(2-((4-oxo-2-(4-(trifluoromethoxy)phenyl)-1,3,8-triazaspiro[4.5]deca-1-en-8-yl)sulfonyl)ethyl)phenyl)-5,5-dimethylimidazolidine-2,4-dione]: in the series with TPTX rat model, the “achievement” value is on record as “achieved the therapeutic target range”; the “change of serum Ca concentration” value is given as “large positive changes from the Pre-value”; the “significance of serum Ca change compared to Comparative Examples 1 and 2” value was “statistically significant”. Besides, on human PTH1R, the concentration for an effect of 20% (EC20) stood at 1.1 µM and a half-maximal effect (EC50) was put at 4.1 µM. Moreover, in series [1], the hepatocyte CLint at 1 μM was determined as 0.9 µL/min/1e6 cells; the “rat hepatocyte metabolic stability compared to Comparative Examples 1, 2, 3, 5, and 6” value is listed as “increased”. Further, the microsomal CLint at 1 μM in series [2] was 30 µL/min/mg. At rat PTH1R, the EC20 is 0.5 µM and the EC50 is 2.4 µM.
In the case of `Cc1cc(N2C(=O)CNC2=O)cc(C)c1CCS(=O)(=O)N1CCC2(CC1)N=C(c1cccc(OC(F)(F)F)c1)NC2=O` [Comparative Example 2, reference compound], in the series on TPTX rat model, the “achievement” value was “could not be achieved” and the “change of serum Ca concentration” value is on record as “smaller positive changes from the Pre-value”. On human PTH1R, the EC20 amounted to 3.1 µM and the response was half-maximal at 13 µM (EC50). The hepatocyte CLint at 1 μM in series [1] turned out to be 5.9 µL/min/1e6 cells. The microsomal CLint at 1 μM in series [2] was 61 µL/min/mg.
In the case of `Cc1cc(N2C(=O)NC(=O)C2(C)C)cc(C)c1CCS(=O)(=O)N1CCC2(CC1)N=C(c1cccc(C(F)(F)F)c1)NC2=O` [Compound 6, 1-(3,5-dimethyl-4-(2-((4-oxo-2-(3-(trifluoromethyl)phenyl)-1,3,8-triazaspiro[4.5]deca-1-en-8-yl)sulfonyl)ethyl)phenyl)-5,5-dimethylimidazolidine-2,4-dione], in the series on TPTX rat model, the “achievement” value is “achieved the therapeutic target range” and the “change of serum Ca concentration” value is reported as “large positive changes from the Pre-value”. At human PTH1R, this compound yielded an EC20 of 2.0 µM and an EC50 of 9 µM. In addition, the hepatocyte CLint at 1 μM in series [1] came out at 1.4 µL/min/1e6 cells. In series [2], the microsomal CLint at 1 μM was found to be 29 µL/min/mg.
As for `Cc1cc(N2C(=O)CNC2=O)ccc1CCS(=O)(=O)N1CCC2(CC1)N=C(c1cccc(OC(F)(F)F)c1)NC2=O` [Comparative Example 1, reference compound], in the series on TPTX rat model, the “achievement” value is on record as “could not be achieved” and the “change of serum Ca concentration” value was “smaller positive changes from the Pre-value”. Also, on human PTH1R, the EC20 was found to be 1.5 µM and the EC50 was found to be 4.8 µM. The hepatocyte CLint at 1 μM in series [1] is 5.8 µL/min/1e6 cells. Further, in series [2], the microsomal CLint at 1 μM stood at 84 µL/min/mg. On rat PTH1R, this compound came in with an EC20 of 0.8 µM and an EC50 of 2.3 µM.

The EC20 is the point of the concentration-response curve where the effect stands at 20%. A word on the EC50: it is the concentration at which the effect is half-maximal. Read a high EC50 as weaker potency.
